# Source: US20250101023A1, “HETEROARYL DERIVATIVE AND USES THEREOF” (IUCF-HYU (INDUSTRY-UNIVERSITY COOPERATION FOUNDATION …, priority 2022, published 2025)
# Legend:
# Assay in all cases: Kinome-wide profiling
# [1] = molecular target: MAST3 (Homo sapiens (Human), UniProt O60307); assay type: biochemical; conditions: read-out: % Residual Activity (mean)
# [2] = molecular target: MEK2 (Homo sapiens (Human), UniProt P36507); assay type: biochemical; conditions: read-out: % Residual Activity (mean)
# [3] = test system: RAF1; assay type: biochemical, human; conditions: 10 μM
# [4] = molecular target: TESK2 (Homo sapiens (Human), UniProt Q96S53); assay type: biochemical; conditions: read-out: % Residual Activity (mean)
# [5] = molecular target: FLT3 (Homo sapiens (Human), UniProt P36888); assay type: biochemical; conditions: read-out: % Residual Activity (mean)
# [6] = molecular target: NLK (Homo sapiens (Human), UniProt Q9UBE8); assay type: biochemical; conditions: read-out: % Residual Activity (mean)
# NLK, sequence (Q9UBE8 whole entry): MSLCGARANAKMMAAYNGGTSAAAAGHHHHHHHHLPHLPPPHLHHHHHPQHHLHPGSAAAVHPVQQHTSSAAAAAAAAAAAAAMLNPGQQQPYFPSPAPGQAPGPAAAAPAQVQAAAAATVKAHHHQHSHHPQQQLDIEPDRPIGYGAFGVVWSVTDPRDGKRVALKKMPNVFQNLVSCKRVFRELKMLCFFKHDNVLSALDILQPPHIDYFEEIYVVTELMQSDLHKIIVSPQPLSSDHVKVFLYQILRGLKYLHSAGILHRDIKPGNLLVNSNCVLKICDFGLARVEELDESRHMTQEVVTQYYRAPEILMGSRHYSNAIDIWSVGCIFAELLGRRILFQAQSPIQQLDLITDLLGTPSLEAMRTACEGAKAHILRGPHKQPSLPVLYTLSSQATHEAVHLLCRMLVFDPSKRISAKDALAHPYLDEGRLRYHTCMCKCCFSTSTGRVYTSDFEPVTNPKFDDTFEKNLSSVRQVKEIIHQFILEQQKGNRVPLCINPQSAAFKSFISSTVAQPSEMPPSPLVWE
# [7] = molecular target: IRAK1 (Homo sapiens (Human), UniProt P51617); assay type: biochemical; conditions: read-out: % Residual Activity (mean)
# [8] = molecular target: PKCepsilon (Homo sapiens (Human), UniProt Q02156); assay type: biochemical; conditions: read-out: % Residual Activity (mean)
# [9] = molecular target: TLK1 (Homo sapiens (Human), UniProt Q9UKI8); assay type: biochemical; conditions: read-out: % Residual Activity (mean)
# [10] = molecular target: HCK (Homo sapiens (Human), UniProt P08631); assay type: biochemical; conditions: read-out: % Residual Activity (mean)
# [11] = molecular target: FES/FPS (Homo sapiens (Human), UniProt P07332); assay type: biochemical; conditions: read-out: % Residual Activity (mean)
# [12] = molecular target: STK39/STLK3 (Homo sapiens (Human), UniProt Q9UEW8); assay type: biochemical; conditions: read-out: % Residual Activity (mean)
# [13] = molecular target: AKT1 (Homo sapiens (Human), UniProt P31749); assay type: biochemical; conditions: read-out: % Residual Activity (mean)
# [14] = molecular target: FLT1/VEGFR1 (Homo sapiens (Human), UniProt P17948); assay type: biochemical; conditions: read-out: % Residual Activity (mean)
# [15] = molecular target: BMPR2 (Homo sapiens (Human), UniProt Q13873); assay type: biochemical; conditions: read-out: % Residual Activity (mean)
# [16] = molecular target: ERN2/IRE2 (Homo sapiens (Human), UniProt Q76MJ5); assay type: biochemical; conditions: read-out: % Residual Activity (mean)
# [17] = molecular target: TNK1 (Homo sapiens (Human), UniProt Q13470); assay type: biochemical; conditions: read-out: % Residual Activity (mean)
# [18] = molecular target: ARAF (Homo sapiens (Human), UniProt P10398); assay type: biochemical; conditions: read-out: % Residual Activity (mean)
# ARAF, sequence (P10398 whole entry): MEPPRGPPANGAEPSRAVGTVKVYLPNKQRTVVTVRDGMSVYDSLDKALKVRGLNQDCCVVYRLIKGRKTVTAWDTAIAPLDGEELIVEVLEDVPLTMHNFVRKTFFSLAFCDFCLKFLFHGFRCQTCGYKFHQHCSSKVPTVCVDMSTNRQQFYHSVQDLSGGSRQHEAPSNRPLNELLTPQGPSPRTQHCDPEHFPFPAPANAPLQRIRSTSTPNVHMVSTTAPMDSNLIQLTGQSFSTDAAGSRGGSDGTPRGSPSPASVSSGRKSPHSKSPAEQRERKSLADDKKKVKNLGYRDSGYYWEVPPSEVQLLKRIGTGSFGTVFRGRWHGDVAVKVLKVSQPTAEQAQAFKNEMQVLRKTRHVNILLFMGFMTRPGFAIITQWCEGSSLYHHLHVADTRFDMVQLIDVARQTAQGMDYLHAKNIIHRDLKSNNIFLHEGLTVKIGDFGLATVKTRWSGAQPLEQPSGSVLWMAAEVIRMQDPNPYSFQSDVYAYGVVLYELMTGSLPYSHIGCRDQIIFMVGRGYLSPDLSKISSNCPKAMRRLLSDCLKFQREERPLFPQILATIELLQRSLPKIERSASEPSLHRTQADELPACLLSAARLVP
# [19] = molecular target: SYK (Homo sapiens (Human), UniProt P43405); assay type: biochemical; conditions: read-out: % Residual Activity (mean)
# [20] = molecular target: PLK1 (Homo sapiens (Human), UniProt P53350); assay type: biochemical; conditions: read-out: % Residual Activity (mean)
# PLK1, sequence (P53350 whole entry): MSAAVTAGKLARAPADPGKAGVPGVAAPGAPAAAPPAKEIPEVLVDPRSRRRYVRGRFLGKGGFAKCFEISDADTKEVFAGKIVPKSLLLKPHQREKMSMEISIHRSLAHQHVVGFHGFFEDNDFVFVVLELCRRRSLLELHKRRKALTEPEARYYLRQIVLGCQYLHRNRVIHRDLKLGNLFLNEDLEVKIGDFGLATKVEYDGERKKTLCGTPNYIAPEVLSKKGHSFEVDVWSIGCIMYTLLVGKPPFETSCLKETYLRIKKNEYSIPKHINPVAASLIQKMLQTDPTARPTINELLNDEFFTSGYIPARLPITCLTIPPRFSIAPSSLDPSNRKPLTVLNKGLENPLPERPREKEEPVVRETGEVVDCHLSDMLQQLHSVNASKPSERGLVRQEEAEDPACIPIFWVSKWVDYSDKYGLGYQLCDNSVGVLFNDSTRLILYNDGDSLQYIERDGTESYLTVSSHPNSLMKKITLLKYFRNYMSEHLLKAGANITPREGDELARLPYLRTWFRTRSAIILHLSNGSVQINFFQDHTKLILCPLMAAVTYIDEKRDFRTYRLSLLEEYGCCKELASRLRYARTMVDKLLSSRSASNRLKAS
# [21] = molecular target: MUSK (Homo sapiens (Human), UniProt O15146); assay type: biochemical; conditions: read-out: % Residual Activity (mean)
# MUSK, sequence (O15146 24-869): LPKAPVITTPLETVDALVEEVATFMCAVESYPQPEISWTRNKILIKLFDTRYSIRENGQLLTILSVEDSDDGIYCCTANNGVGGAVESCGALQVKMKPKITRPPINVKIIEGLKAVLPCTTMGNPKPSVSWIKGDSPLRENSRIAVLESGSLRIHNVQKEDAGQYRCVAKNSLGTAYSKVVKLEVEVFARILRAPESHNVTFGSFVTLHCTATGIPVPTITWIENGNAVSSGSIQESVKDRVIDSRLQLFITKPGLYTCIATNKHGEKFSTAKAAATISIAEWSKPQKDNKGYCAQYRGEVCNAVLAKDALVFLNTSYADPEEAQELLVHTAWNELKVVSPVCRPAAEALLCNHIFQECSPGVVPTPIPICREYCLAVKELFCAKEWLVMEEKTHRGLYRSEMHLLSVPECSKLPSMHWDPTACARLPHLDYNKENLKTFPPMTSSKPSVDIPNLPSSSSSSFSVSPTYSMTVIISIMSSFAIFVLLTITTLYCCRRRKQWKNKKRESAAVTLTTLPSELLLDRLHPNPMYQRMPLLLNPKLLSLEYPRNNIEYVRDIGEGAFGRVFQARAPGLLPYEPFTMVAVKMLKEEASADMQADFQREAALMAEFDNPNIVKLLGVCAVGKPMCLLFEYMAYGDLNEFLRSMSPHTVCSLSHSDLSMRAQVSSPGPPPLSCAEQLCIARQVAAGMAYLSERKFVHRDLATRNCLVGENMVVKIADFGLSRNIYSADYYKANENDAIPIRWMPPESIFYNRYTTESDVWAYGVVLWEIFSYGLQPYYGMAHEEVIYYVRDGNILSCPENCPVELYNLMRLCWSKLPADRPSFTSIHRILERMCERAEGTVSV
# [22] = molecular target: NIM1 (Homo sapiens (Human), UniProt Q8IY84); assay type: biochemical; conditions: read-out: % Residual Activity (mean)
# NIM1, sequence (Q8IY84 whole entry): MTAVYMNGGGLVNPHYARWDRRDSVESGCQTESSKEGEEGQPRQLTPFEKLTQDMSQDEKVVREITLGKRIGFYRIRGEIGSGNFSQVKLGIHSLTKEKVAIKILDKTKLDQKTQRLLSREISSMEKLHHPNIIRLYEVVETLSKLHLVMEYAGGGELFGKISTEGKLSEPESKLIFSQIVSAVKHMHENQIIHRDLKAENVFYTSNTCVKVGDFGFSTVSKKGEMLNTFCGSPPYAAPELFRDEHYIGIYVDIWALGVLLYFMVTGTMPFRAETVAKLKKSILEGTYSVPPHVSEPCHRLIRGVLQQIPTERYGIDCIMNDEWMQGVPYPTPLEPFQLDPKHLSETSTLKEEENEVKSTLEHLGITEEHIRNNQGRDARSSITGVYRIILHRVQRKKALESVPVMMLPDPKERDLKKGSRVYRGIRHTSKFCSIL
# [23] = molecular target: MYO3b (Homo sapiens (Human), UniProt Q8WXR4); assay type: biochemical; conditions: read-out: % Residual Activity (mean)
# [24] = molecular target: EPHB3 (Homo sapiens (Human), UniProt P54753); assay type: biochemical; conditions: read-out: % Residual Activity (mean)
# [25] = molecular target: MYO3A (Homo sapiens (Human), UniProt Q8NEV4); assay type: biochemical; conditions: read-out: % Residual Activity (mean)
# [26] = molecular target: YES/YES1 (Homo sapiens (Human), UniProt P07947); assay type: biochemical; conditions: read-out: % Residual Activity (mean)
# [27] = molecular target: GCK/MAP4K2 (Homo sapiens (Human), UniProt Q12851); assay type: biochemical; conditions: read-out: % Residual Activity (mean)
# [28] = molecular target: CDK5/p35 (Homo sapiens (Human), UniProt Q00535); assay type: biochemical; conditions: read-out: % Residual Activity (mean)
# [29] = molecular target: GRK5 (Homo sapiens (Human), UniProt P34947); assay type: biochemical; conditions: read-out: % Residual Activity (mean)
# [30] = molecular target: ALK (Homo sapiens (Human), UniProt Q9UM73); assay type: biochemical; conditions: read-out: % Residual Activity (mean)
# [31] = molecular target: CDK7/cyclin H (Homo sapiens (Human), UniProt P50613); assay type: biochemical; conditions: read-out: % Residual Activity (mean)
# [32] = molecular target: DCAMKL2 (Homo sapiens (Human), UniProt Q8N568); assay type: biochemical; conditions: read-out: % Residual Activity (mean)
# [33] = molecular target: IRR/INSRR (Homo sapiens (Human), UniProt P14616); assay type: biochemical; conditions: read-out: % Residual Activity (mean)
# [34] = molecular target: PKCeta (Homo sapiens (Human), UniProt P24723); assay type: biochemical; conditions: read-out: % Residual Activity (mean)
# [35] = molecular target: RIPK2 (Homo sapiens (Human), UniProt O43353); assay type: biochemical; conditions: read-out: % Residual Activity (mean)
# [36] = molecular target: TRKA (Homo sapiens (Human), UniProt P04629); assay type: biochemical; conditions: read-out: % Residual Activity (mean)
# [37] = molecular target: DDR2 (Homo sapiens (Human), UniProt Q16832); assay type: biochemical; conditions: read-out: % Residual Activity (mean)
# [38] = molecular target: PAK1 (Homo sapiens (Human), UniProt Q13153); assay type: biochemical; conditions: read-out: % Residual Activity (mean)
# [39] = molecular target: IRAK4 (Homo sapiens (Human), UniProt Q9NWZ3); assay type: biochemical; conditions: read-out: % Residual Activity (mean)
# IRAK4, sequence (Q9NWZ3 whole entry): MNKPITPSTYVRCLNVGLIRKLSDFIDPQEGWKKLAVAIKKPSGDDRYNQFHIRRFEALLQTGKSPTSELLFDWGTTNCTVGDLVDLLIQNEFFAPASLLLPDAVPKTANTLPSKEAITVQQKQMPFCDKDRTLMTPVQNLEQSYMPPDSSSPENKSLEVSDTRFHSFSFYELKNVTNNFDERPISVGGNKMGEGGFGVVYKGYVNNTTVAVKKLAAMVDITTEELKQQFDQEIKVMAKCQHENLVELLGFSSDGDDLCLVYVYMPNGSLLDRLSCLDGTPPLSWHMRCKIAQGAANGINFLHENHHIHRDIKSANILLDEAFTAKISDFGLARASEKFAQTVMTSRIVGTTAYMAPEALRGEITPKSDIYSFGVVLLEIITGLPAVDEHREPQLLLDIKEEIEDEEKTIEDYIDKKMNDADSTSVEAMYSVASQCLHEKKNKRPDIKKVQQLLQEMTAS
# [40] = molecular target: LRRK2 (Homo sapiens (Human), UniProt Q5S007); assay type: biochemical; conditions: read-out: % Residual Activity (mean)
# MAST3, sequence (O60307 whole entry): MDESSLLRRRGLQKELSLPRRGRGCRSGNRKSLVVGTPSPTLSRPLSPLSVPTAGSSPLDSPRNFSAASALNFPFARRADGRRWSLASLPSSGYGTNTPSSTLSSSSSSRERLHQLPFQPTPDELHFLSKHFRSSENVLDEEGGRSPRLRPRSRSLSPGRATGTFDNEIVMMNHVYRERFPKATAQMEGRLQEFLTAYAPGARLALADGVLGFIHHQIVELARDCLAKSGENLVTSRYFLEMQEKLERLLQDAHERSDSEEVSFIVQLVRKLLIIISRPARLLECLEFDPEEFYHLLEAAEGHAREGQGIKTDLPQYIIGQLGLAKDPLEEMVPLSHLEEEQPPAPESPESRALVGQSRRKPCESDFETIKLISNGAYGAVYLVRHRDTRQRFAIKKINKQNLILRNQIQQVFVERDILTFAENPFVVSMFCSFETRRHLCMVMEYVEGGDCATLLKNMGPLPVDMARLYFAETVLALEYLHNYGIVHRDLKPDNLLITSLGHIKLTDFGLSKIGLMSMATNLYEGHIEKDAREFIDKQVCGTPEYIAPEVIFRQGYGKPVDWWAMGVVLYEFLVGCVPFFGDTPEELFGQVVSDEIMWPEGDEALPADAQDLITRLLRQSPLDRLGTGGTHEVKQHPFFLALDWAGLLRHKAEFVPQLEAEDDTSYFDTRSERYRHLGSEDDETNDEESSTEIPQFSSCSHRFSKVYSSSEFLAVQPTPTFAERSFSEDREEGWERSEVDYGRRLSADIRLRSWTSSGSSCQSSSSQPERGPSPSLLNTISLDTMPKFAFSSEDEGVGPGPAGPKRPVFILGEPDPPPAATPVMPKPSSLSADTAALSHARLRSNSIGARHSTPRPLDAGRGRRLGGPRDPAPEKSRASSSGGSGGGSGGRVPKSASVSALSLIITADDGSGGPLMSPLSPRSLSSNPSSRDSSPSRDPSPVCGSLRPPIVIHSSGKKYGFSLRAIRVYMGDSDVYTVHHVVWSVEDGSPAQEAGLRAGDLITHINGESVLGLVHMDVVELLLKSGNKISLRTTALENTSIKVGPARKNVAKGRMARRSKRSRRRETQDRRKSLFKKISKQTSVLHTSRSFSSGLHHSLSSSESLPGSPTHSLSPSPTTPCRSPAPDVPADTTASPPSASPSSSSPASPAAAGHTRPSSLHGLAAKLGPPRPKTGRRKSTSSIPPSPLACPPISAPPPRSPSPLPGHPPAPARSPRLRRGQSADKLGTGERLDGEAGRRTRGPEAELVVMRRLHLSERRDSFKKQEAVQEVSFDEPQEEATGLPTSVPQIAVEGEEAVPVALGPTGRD
compound,measurement,setting,value
"CCn1cnc2c(NCc3ccc(-c4ccccn4)nc3)nc(-c3ccc(N)nc3)nc21 [Example 53, N-([2,2′-bipyridin]-5-ylmethyl)-2-(6-aminopyridin-3-yl)-9-ethyl-9H-purin-6-amine]",remaining activity at 10 µM,[1],39.3%
same,remaining activity at 10 µM,[2],176%
same,% Residual Activity (mean),[3],68.57%
same,remaining activity at 10 µM,[4],83.7%
same,remaining activity at 10 µM,[5],40.2%
same,remaining activity at 10 µM,[6],24.8%
same,remaining activity at 10 µM,[7],79%
same,remaining activity at 10 µM,[8],94.1%
same,remaining activity at 10 µM,[9],67.8%
same,remaining activity at 10 µM,[10],46.5%
same,remaining activity at 10 µM,[11],6.37%
same,remaining activity at 10 µM,[12],29.6%
same,remaining activity at 10 µM,[13],94.9%
same,remaining activity at 10 µM,[14],36.3%
same,remaining activity at 10 µM,[15],52.4%
same,remaining activity at 10 µM,[16],65.4%
same,remaining activity at 10 µM,[17],91.3%
same,remaining activity at 10 µM,[18],79.5%
same,remaining activity at 10 µM,[19],48.4%
same,remaining activity at 10 µM,[20],68.3%
same,remaining activity at 10 µM,[21],10.2%
same,remaining activity at 10 µM,[22],76%
same,remaining activity at 10 µM,[23],68.1%
same,remaining activity at 10 µM,[24],66%
same,remaining activity at 10 µM,[25],71.3%
same,remaining activity at 10 µM,[26],20.6%
same,remaining activity at 10 µM,[27],58.4%
same,remaining activity at 10 µM,[28],0.67%
same,remaining activity at 10 µM,[29],91.5%
same,remaining activity at 10 µM,[30],59.7%
same,remaining activity at 10 µM,[31],3.81%
same,remaining activity at 10 µM,[32],55%
same,remaining activity at 10 µM,[33],31.1%
same,remaining activity at 10 µM,[34],87.9%
same,remaining activity at 10 µM,[35],66.1%
same,remaining activity at 10 µM,[36],28.7%
same,remaining activity at 10 µM,[37],87.2%
same,remaining activity at 10 µM,[38],24.5%
same,remaining activity at 10 µM,[39],94.8%
same,remaining activity at 10 µM,[40],17.8%
